Among the data in patent publication US20090311217A1, “3-SUBSTITUTED-1H-INDOLE COMPOUNDS, THEIR USE AS MTOR KINASE AND PI3 KINASE INHIBITORS, AND THEIR SYNTHESES” (priority 2008, published 2009) are IC50 values, retold here.

Read-outs that look alike come from different tables or passages of the source.

This test addresses PI3K-alpha (Homo sapiens, UniProt P42336). Put plainly: PI3K-alpha fluorescence polarization assay. The class given is biochemical.

Sequence of PI3K-alpha (P42336 whole entry, species assumed): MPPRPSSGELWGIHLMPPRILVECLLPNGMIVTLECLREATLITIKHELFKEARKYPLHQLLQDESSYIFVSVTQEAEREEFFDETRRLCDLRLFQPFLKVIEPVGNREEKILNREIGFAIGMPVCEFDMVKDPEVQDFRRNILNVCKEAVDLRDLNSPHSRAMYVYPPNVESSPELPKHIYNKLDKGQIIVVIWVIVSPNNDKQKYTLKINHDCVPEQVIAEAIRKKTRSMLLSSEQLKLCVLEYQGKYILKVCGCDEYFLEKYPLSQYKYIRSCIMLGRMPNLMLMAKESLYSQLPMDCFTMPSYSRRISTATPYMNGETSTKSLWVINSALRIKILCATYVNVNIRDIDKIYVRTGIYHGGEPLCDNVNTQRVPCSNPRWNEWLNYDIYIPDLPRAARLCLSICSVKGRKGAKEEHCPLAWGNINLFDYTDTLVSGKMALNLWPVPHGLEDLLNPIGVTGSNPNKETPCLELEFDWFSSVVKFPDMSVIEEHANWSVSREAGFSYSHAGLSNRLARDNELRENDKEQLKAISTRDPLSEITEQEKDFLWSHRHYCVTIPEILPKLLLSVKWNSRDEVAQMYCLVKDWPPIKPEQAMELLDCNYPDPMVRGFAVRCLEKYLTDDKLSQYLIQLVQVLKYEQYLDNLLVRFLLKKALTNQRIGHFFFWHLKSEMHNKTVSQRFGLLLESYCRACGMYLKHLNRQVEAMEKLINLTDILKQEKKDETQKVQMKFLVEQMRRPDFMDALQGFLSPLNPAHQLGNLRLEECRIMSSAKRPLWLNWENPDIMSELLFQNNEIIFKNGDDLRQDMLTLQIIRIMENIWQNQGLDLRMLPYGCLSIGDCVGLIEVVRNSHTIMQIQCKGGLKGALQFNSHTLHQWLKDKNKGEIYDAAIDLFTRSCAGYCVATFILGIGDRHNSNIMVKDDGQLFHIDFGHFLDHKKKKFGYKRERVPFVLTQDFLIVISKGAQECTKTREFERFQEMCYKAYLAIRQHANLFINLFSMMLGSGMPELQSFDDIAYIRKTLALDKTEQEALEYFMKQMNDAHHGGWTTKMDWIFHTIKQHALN
Sequence of PI3K-alpha (P27986 whole entry partner, species assumed): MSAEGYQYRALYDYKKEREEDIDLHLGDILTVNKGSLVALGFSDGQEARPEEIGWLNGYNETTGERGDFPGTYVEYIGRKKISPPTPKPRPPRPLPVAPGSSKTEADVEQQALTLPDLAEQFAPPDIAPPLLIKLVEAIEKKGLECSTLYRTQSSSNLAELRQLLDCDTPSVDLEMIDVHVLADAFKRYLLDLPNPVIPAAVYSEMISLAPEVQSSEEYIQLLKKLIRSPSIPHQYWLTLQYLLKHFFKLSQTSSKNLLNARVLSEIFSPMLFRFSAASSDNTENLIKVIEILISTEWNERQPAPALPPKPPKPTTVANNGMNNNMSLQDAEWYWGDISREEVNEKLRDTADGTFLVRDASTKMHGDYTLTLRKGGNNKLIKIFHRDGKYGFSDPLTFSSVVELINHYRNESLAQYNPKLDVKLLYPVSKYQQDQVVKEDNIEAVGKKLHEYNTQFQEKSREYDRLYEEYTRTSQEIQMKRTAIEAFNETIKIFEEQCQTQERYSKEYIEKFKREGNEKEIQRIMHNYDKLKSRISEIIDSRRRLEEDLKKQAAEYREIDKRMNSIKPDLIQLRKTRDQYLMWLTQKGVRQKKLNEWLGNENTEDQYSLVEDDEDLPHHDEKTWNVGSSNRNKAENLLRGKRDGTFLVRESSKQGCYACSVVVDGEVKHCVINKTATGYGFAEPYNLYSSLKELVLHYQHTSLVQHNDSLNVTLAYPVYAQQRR

Consider `O=C1/C(=C/c2cn(Cc3ccccc3)c3ccccc23)Oc2ccccc21` [Example 25, (2Z)-2-[(1-benzyl-1H-indol-3-yl)methylene]-1-benzofuran-3(2H)-one], for which the IC50 (read-out: PI3Kα Avg. IC50) is > 10 µM. Still for that read-out and setting: the same measure for `COc1cccc2c1OC(=Cc1c[nH]c3ccccc13)C2=O` [Example 9, 2-(1H-indol-3-ylmethylene)-7-methoxy-1-benzofuran-3(2H)-one]: > 10 µM; for `COc1cccc2c1O/C(=C\c1c(C)[nH]c3ccccc13)C2=O` [Example 39, (2Z)-7-methoxy-2-[(2-methyl-1H-indol-3-yl)methylene]-1-benzofuran-3(2H)-one]: > 10 µM.

`Cc1c(C=C2Oc3cc(O)cc(O)c3C2=O)c2cc(F)ccc2n1C` [Example 235, 2-[(5-fluoro-1,2-dimethyl-1H-indol-3-yl)methylene]-4,6-dihydroxy-1-benzofuran-3(2H)-one]: the IC50 (read-out: PI3Kα Avg. IC50) stood at 4.03 µM.

`Cc1[nH]c2ccc([N+](=O)[O-])cc2c1/C=C1\Oc2ccccc2C1=O` [Example 20, (2Z)-2-[(2-methyl-5-nitro-1H-indol-3-yl)methylene]-1-benzofuran-3(2H)-one]: the IC50 (read-out: PI3Kα Avg. IC50) is > 10 µM. Same read-out and setting: the same measure for `Cc1ccc2c(c1)C(=O)/C(=C/c1c[nH]c3ccc(Br)cc13)S2` [Example 294, (2Z)-2-[(5-bromo-1H-indol-3-yl)methylene]-5-methyl-1-benzothiophen-3(2H)-one]: > 10 µM; for `Cc1ccc2c(/C=C3\Oc4ccccc4C3=O)c[nH]c2c1` [Example 22, (2Z)-2-[(6-methyl-1H-indol-3-yl)methylene]-1-benzofuran-3(2H)-one]: > 10 µM; for `Cc1[nH]c2ccccc2c1/C=C1\Oc2ccccc2C1=O` [Example 21, (2Z)-2-[(2-methyl-1H-indol-3-yl)methylene]-1-benzofuran-3(2H)-one]: > 10 µM.

As for `Cc1ccc2c(c1)C(=O)/C(=C/c1c(-c3ccc(Cl)cc3)[nH]c3ccccc13)S2` [Example 291, (2Z)-2-{[2-(4-chlorophenyl)-1H-indol-3-yl]methylene}-5-methyl-1-benzothiophen-3(2H)-one], for the setting “read-out: PI3Kα Avg. IC50”, the IC50 was > 10 µM. Regarding `O=C1/C(=C/c2c(-c3ccc4ccccc4c3)[nH]c3ccccc23)Oc2cc(O)ccc21` [Example 27, (2Z)-6-hydroxy-2-{[2-(2-naphthyl)-1H-indol-3-yl]methylene}-1-benzofuran-3(2H)-one], the IC50 (read-out: PI3Kα Avg. IC50) amounted to 5.47 µM.

`Cc1ccc2c(/C=C3\Oc4cc(O)ccc4C3=O)c[nH]c2c1` [Example 31, (2Z)-6-hydroxy-2-[(6-methyl-1H-indol-3-yl)methylene]-1-benzofuran-3(2H)-one]: the IC50 (read-out: PI3Kα Avg. IC50) was found to be 9.6 µM. On the same count and under the same terms, in the case of `O=C1/C(=C/c2cn(Cc3ccccc3)c3ccccc23)Sc2ccc(Cl)cc21` [Example 287, (2Z)-2-[(1-benzyl-1H-indol-3-yl)methylene]-5-chloro-1-benzothiophen-3(2H)-one] it was > 10 µM; in that of `Cc1ccc2c(c1)C(=O)C(=Cc1c(C)[nH]c3ccc([N+](=O)[O-])cc13)S2` [Example 298, 5-methyl-2-[(2-methyl-5-nitro-1H-indol-3-yl)methylene]-1-benzothiophen-3(2H)-one], 9.19 µM. Regarding `COc1cc(-c2ccncc2)c2c(c1)c(/C=C1\Oc3cc(O)ccc3C1=O)cn2CCCC#N` [Compound 500, 4-{3-[(Z)-(6-hydroxy-3-oxo-1-benzofuran-2(3H)-ylidene)methyl]-5-methoxy-7-pyridin-4-yl-1H-indol-1-yl}butanenitrile], under “read-out: PI3Kα Avg. IC50”, the IC50 was 0.589 µM. In the case of `O=C1/C(=C/c2cn(Cc3ccccc3)c3ccccc23)Sc2ccccc21` [Example 282, (2Z)-2-[(1-benzyl-1H-indol-3-yl)methylene]-1-benzothiophen-3(2H)-one], the IC50 (read-out: PI3Kα Avg. IC50) amounted to 1.42 µM. On the same count and under the same terms, in the case of `O=C1/C(=C/c2c(-c3ccc(F)cc3)[nH]c3ccccc23)Oc2ccccc21` [Example 19, (2Z)-2-{[2-(4-fluorophenyl)-1H-indol-3-yl]methylene}-1-benzofuran-3(2H)-one] it was 1.98 µM. The same measure, in the same setting: the same measure for `O=C1C(=Cc2c[nH]c3ccccc23)Oc2ccccc21` [Example 1, 2-(1H-indol-3-ylmethylene)-1-benzofuran-3(2H)-one]: > 10 µM; for `O=C1/C(=C/c2c(-c3ccc(Cl)cc3)[nH]c3ccccc23)Oc2ccccc21` [Example 17, (2Z)-2-{[2-(4-chlorophenyl)-1H-indol-3-yl]methylene}-1-benzofuran-3(2H)-one]: 2.49 µM; for `O=C1/C(=C/c2c[nH]c3ccccc23)Sc2ccccc21` [Example 273, (2Z)-2-(1H-indol-3-ylmethylene)-1-benzothiophen-3(2H)-one]: 9.62 µM. On the same count and under the same terms, in the case of `Cc1ccc2c(c1)C(=O)/C(=C/c1c(-c3ccccc3)[nH]c3ccccc13)S2` [Example 290, (2Z)-5-methyl-2-[(2-phenyl-1H-indol-3-yl)methylene]-1-benzothiophen-3(2H)-one] it was 9.17 µM.

As to `COc1ccc2c(c1)c(/C=C1\Oc3cc(OC(=O)N(C)c4ccccc4)ccc3C1=O)c(C)n2CCN1CCN(C)CC1` [Compound 558, (2Z)-2-({5-methoxy-2-methyl-1-[2-(4-methylpiperazin-1-yl)ethyl]-1H-indol-3-yl}methylene)-3-oxo-2,3-dihydro-1-benzofuran-6-yl methyl(phenyl)carbamate], under “PI3Kα Avg. IC50”, the half-inhibitory concentration (IC50) was > 10 µM.

Regarding `Cc1ccc2c(c1)C(=O)C(=Cc1c(-c3ccc(F)cc3)[nH]c3ccccc13)S2` [Example 297, 2-{[2-(4-fluorophenyl)-1H-indol-3-yl]methylene}-5-methyl-1-benzothiophen-3(2H)-one], under “read-out: PI3Kα Avg. IC50”, the IC50 was > 10 µM. `O=C1/C(=C/c2cn(Cc3ccccc3)c3ccccc23)Oc2cc(O)ccc21` [Example 33, (2Z)-2-[(1-benzyl-1H-indol-3-yl)methylene]-6-hydroxy-1-benzofuran-3(2H)-one]: under “read-out: PI3Kα Avg. IC50”, the IC50 is > 10 µM. On the same count and under the same terms, the same measure for `Cc1[nH]c2ccccc2c1/C=C1\Sc2ccccc2C1=O` [Example 272, (2Z)-2-[(2-methyl-1H-indol-3-yl)methylene]-1-benzothiophen-3(2H)-one]: 1.32 µM; for `O=C1/C(=C/c2c(-c3ccc(Cl)cc3)[nH]c3ccccc23)Oc2cc(O)ccc21` [Example 26, (2Z)-2-{[2-(4-chlorophenyl)-1H-indol-3-yl]methylene}-6-hydroxy-1-benzofuran-3(2H)-one]: 3.81 µM. Same read-out and setting: in the case of `O=C1/C(=C/c2c(-c3ccc(F)cc3)[nH]c3ccccc23)Oc2cc(O)ccc21` [Example 28, (2Z)-2-{[2-(4-fluorophenyl)-1H-indol-3-yl]methylene}-6-hydroxy-1-benzofuran-3(2H)-one] it was 2.43 µM; in that of `Cc1ccc2c(c1)C(=O)C(=Cc1cn(C)c3ccccc13)S2` [Example 299, 5-methyl-2-[(1-methyl-1H-indol-3-yl)methylene]-1-benzothiophen-3(2H)-one], > 10 µM; in that of `Cc1ccc2c(c1)C(=O)/C(=C/c1c[nH]c3cc(C)ccc13)S2` [Example 292, (2Z)-5-methyl-2-[(6-methyl-1H-indol-3-yl)methylene]-1-benzothiophen-3(2H)-one], > 10 µM.

As for `O=C1/C(=C/c2c[nH]c3ccc(OCc4ccccc4)cc23)Sc2ccc(Cl)cc21` [Example 288, (2Z)-2-{[5-(benzyloxy)-1H-indol-3-yl]methylene}-5-chloro-1-benzothiophen-3(2H)-one], the IC50 (read-out: PI3Kα Avg. IC50) was > 10 µM.
